Measurements published in patent US4218460A, “Nitroimidazoles” (BASF Aktiengesellschaft, priority 1978, dated 1980).
In brackets after ≈: the same amount, converted by molar mass.

Key:
Trichomonas vaginalis = test: Minimum inhibition concentration on Trichomonas vaginalis, in vitro quantitative tube-dilution test; type: cell-based; conditions: for Relative effectiveness Metronidazol = 1.0: MIC on Trichomonas vaginalis relative to Metronidazol = 1.0; for MIC: Trichomonas vaginalis, in vitro tube-dilution test
Procedure: Minimum inhibition concentrations (MIC) on Trichomonas
^1 The tests were carried out in vitro using the quantitative
tubedilutiom test described by P. Klein, Bakteriologische Geundlagen der
chemotherapeutischen Laboratoriumspraxis, SpringerVerlag
BerlinCoettingen-Heidelberg, 1957.

Trypanosoma brucei = Trypanosoma brucei infection of the mouse; type: in vivo, mouse (NMRI strains); conditions: for recidivation: 25 days post-observation
Procedure: (§1) The action against infections caused by Trypanosomas and Entamoeba histolytica can be illustrated on the mouse (NMRI strains) using methods described in Handbuch fur experimentelle Pharmakologie, Erganzungswerk 16, Erzeugung von Krankheitszustanden durch das Experiment, Part 9, pages 150 to 292, Springer-Verlag, Berlin-Goettingen-Heidelberg, 1964.
1. Trypanosoma brucei--infections of the mouse
(§2) Various dosages were investigated. The curing of the infection was determined microscopically and in a culture. There was also post-observation for 25 days after treatment was discontinued in order to establish whether there was any recidivation

Trypanosoma gambiense = Trypanosoma gambiense infection of mouse; type: in vivo, mouse (NMRI strains)
Procedure: as §1, §2
2. Trypanosoma gambiense--infection of mouse
(§3) Same method as in the case of Trypanosoma brucei

Trypanosoma congolense = Trypanosoma congolense infection of mouse; type: in vivo, mouse (NMRI strains)
Procedure: as §1, §2
3. Trypanosoma congolense--infection of mouse
as §3

Entamoeba histolytica = Entamoeba histolytica in vitro tube-dilution test; type: cell-based; conditions: Entamoeba histolytica PN and Q strains, read-out: minimum inhibition concentration
Procedure: 4. Entamoeba histolytica (tube-dilution test)
The PN and Q strains were tested.
The minimum inhibition concentrations were as follows:
The experiments were carried out in vitro using the quantitative tube-dilution test described by P. Klein, Bakteriologische Grundlagen der chemotherapeutischen Laboratoriumspraxis, Springer-Verlag, Berlin-Goettingen-Heidelberg, 1957.

Trichomonas = Trichomonas vaginal infection of mice; type: in vivo; conditions: po, read-out: cure; for responders at 25 mg/kg: 5×25 mg/kg perorally; for responders at 50 mg/kg: 5×50 mg/kg perorally
Procedure: 5. Trichomonas vaginal--infection of mice Various dosages were investigated. The curing of the infection was determined microscopically and in a culture.

[1] = LD 50 toxicity on mice, oral; conditions: mouse, in vivo, NMRI strain, a week's observation period

Compound	Relative effectiveness Metronidazol = 1.0 (Trichomonas vaginalis)	MIC (Trichomonas vaginalis)	acute action (Trypanosoma brucei; 11×50 mg/kg perorally)	acute action (Trypanosoma gambiense; 11×50 mg/kg perorally)	acute action (Trypanosoma congolense; 11×50 mg/kg perorally)	MIC (Entamoeba histolytica)	responders at 25 mg/kg (Trichomonas)	LD50 at 168 h [1]	responders at 50 mg/kg (Trichomonas)	other results
Cc1nnc(C=Cc2ncc([N+](=O)[O-])n2C)s1 [Example 1, 2-methyl-5-[2-(1-methyl-5-nitroimidazol-2-yl)-vinyl]-1,3,4-thiadiazole]	5.0	0.02 µg/mL (≈ 0.0796 µM)	100%	100%	100%	< 0.01 µg/mL	100%	> 1500 mg/kg	–	recidivation (Trypanosoma brucei; 11×50 mg/kg perorally): 70%; recidivation (Trypanosoma gambiense; 11×50 mg/kg perorally): 80%; no recidivation (so in the source) (Trypanosoma congolense; 11×50 mg/kg perorally): 20%
Cn1c([N+](=O)[O-])cnc1C=Cc1nnc(-c2ccccc2)s1 [Example 2, 2-phenyl-5-[2-(1-methyl-5-nitroimidazol-2-yl)-vinyl]-1,3,4-thiadiazole]	10.0	0.01 µg/mL (≈ 0.0319 µM)	no action	no action	no action	0.1 µg/mL (≈ 0.319 µM)	–	–	10%	–
Cn1c([N+](=O)[O-])cnc1C=Cc1nnc(-c2ccncc2)s1 [Example 5, 2-(4-pyridyl)-5-[2-(1-methyl-5-nitroimidazol-2-yl)-vinyl]-1,3,4-thiadiazole]	10.0	0.01 µg/mL (≈ 0.0318 µM)	no action	no action	no action	< 0.01 µg/mL	100%	–	–	–
Cn1c([N+](=O)[O-])cnc1C=Cc1nncs1 [Example 6, 2-[2-(1-methyl-5-nitroimidazol-2-yl)-vinyl]-1,3,4-thiadiazole]	> 10.0	< 0.01 µg/mL	no action	no action	no action	< 0.01 µg/mL	–	–	50%	–
CCc1nnc(C=Cc2ncc([N+](=O)[O-])n2C)s1 [Example 7, 2-ethyl-5-[2-(1-methyl-5-nitroimidazol-2-yl)-vinyl]-1,3,4-thiadiazole]	> 10.0	< 0.01 µg/mL	–	no action	no action	< 0.01 µg/mL	–	> 1500 mg/kg	100%	acute action (Trypanosoma brucei; 11×50 mg/kg (route not given)): 100%; recidivation (Trypanosoma brucei; 11×50 mg/kg (route not given)): 30%
CCc1nnc(C(C)=Cc2ncc([N+](=O)[O-])n2C)s1 [Example 10, 2-ethyl-5-[1-methyl-2-(1-methyl-5-nitroimidazol-2-yl)-vinyl]-1,3,4-thiadiazole]	> 10.0	< 0.01 µg/mL	100%	100%	100%	< 0.01 µg/mL	100%	> 1500 mg/kg	–	recidivation (Trypanosoma brucei; 11×50 mg/kg perorally): no recidivation; recidivation (Trypanosoma gambiense; 11×50 mg/kg perorally): 60%; recidivation (Trypanosoma congolense; 11×50 mg/kg perorally): no recidication
Cc1ncc([N+](=O)[O-])n1CCO [Metronidazol, reference compound]	1.0	0.1 µg/mL (≈ 0.584 µM)	no action	–	–	0.1 µg/mL (≈ 0.584 µM)	100%	–	–	–
Cc1ccc(C(=O)Nc2ccc(S(=O)(=O)O)c3cc(S(=O)(=O)O)cc(S(=O)(=O)O)c23)cc1NC(=O)c1cccc(NC(=O)Nc2cccc(C(=O)Nc3cc(C(=O)Nc4ccc(S(=O)(=O)O)c5cc(S(=O)(=O)O)cc(S(=O)(=O)O)c45)ccc3C)c2)c1 [Suramin, reference compound]	–	–	–	–	–	–	–	–	–	acute action (Trypanosoma brucei; 7×50 mg/kg intraperitoneally): 80%; recidivation (Trypanosoma brucei; 7×50 mg/kg intraperitoneally): no recidivation; acute action (Trypanosoma gambiense; 7×50 mg/kg intraperitoneally): 50%; recidivation (Trypanosoma gambiense; 7×50 kg/mg intraperitoneally): no recidivation; acute action (Trypanosoma congolense; 7×50 mg/kg intraperitoneally): 70%; recidivation (Trypanosoma congolense; 7×50 mg/kg intraperitoneally): no recidivation
CCS(=O)(=O)CCn1c([N+](=O)[O-])cnc1C [Tinidazol, reference compound]	1.0	0.1 µg/mL (≈ 0.404 µM)	–	–	–	–	100%	–	–	action (Trypanosoma brucei; 22×50 mg/kg perorally): no action
